The values below come from ChEMBL document CHEMBL1201862, “PubChem BioAssay data set” (2004).

Some test systems named below: 786-0; A549; ACHN; DU-145; HCT-116; HCT-15; HOP-92; HT-29; K562; MDA-MB-231; NCI-H522; OVCAR-4; PC-3; SF-268; SF-295; SF-539; SR; UACC-257; NCI/ADR-RES; SK-OV-3.
What all share (experiment): inhibition of tumour cell growth, NCI panel, 48 h

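A five-concentration, 48-hour dose response in 96-well plates underlies each endpoint, interpolated linearly between surrounding concentrations. GI50: concentration for 50% inhibition of growth.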 Active and inactive are the calls of the source. No stated cut-off is given here; in the data, active = GI50 up to about 1.1 µM and inactive = higher.

On to `COc1ccccc1/C=C/c1c(N)ncnc1Nc1cccc(Cl)c1`, for which the GI50 was 11.9 µM (inactive) in the experiment on 786-0; 14.6 µM (inactive) in the experiment on A549; 6.56 µM (inactive) in the experiment on ACHN; 36.6 µM (inactive) with DU-145; 23.5 µM (inactive) in the experiment on HCT-116; 15.9 µM in the experiment with HCT-15. The GI50 in the experiment with HOP-92 was 0.243 µM (active); in the experiment on HT-29, 17.7 µM (inactive); in the experiment on K562, 0.376 µM (active); with MDA-MB-231, 17.7 µM (inactive); in the experiment with NCI-H522, 10.8 µM (inactive); in the experiment on OVCAR-4 it was 14.6 µM (inactive). In addition, the GI50 in the experiment on PC-3 is 0.164 µM (active); with SF-268, 16.1 µM (inactive); with SF-295, 26.2 µM (inactive); with SF-539, 18.3 µM (inactive); in the experiment with SR, 0.132 µM (active); in the experiment on UACC-257 it was 19.3 µM (inactive).
Turning to `COc1ccccc1N/C(SCc1ccccc1)=C(/C(Cl)=C(Cl)Cl)[N+](=O)[O-]`, the GI50 in the experiment with 786-0 is 30.5 µM (inactive); with A549 it was 30.4 µM (inactive); in the experiment on ACHN, 32.1 µM (inactive); in the experiment with DU-145 it was 26.7 µM (inactive); in the experiment on HCT-116 it was 31.3 µM (inactive); with HCT-15, 20.7 µM. The GI50 with HT-29 is 20.3 µM (inactive); with K562, 19.8 µM (inactive); in the experiment with MDA-MB-231, 18.7 µM (inactive); in the experiment with NCI/ADR-RES it was 24.2 µM (inactive); in the experiment on OVCAR-4, 22 µM (inactive); in the experiment with PC-3, 31.8 µM (inactive). For the same molecule, the GI50 is 18.6 µM (inactive) with SF-268; 25.7 µM (inactive) in the experiment on SF-295; 17.4 µM (inactive) with SF-539; 46.5 µM (inactive) in the experiment on SK-OV-3; 85.3 µM (inactive) in the experiment with UACC-257.
Regarding `COC1(OC)CCN(Cc2ccccc2)C1=O`, the GI50 in the experiment on 786-0 is 5.08 µM (inactive); in the experiment with A549 it was 17.7 µM (inactive); with ACHN, 6.28 µM (inactive); in the experiment on DU-145 it was 15.2 µM (inactive); in the experiment on HCT-116, 3.68 µM (inactive); with HCT-15, 13.4 µM. Further, the GI50 is 11.1 µM (inactive) in the experiment with HOP-92; 5.92 µM (inactive) in the experiment with HT-29; 3.27 µM (inactive) in the experiment with K562; 18.5 µM (inactive) in the experiment on MDA-MB-231; > 100 µM (inactive) with NCI-H522; 25.3 µM (inactive) in the experiment with NCI/ADR-RES. Further, the GI50 in the experiment with OVCAR-4 is 16 µM (inactive); with PC-3 it was 13.2 µM (inactive); in the experiment on SF-268 it was > 38.1 µM (inactive); in the experiment on SF-295 it was 23.4 µM (inactive); with SF-539, 14 µM (inactive); in the experiment with SK-OV-3 it was 96.4 µM (inactive). The GI50 in the experiment on UACC-257 is 14.2 µM (inactive).
In the case of `CS(=O)(=O)OCC1OC(n2ccc(NC(=O)c3ccccc3)nc2=O)CC1OS(C)(=O)=O` (stereo not drawn), the GI50 was > 100 µM (inactive) in the experiment with 786-0; > 100 µM (inactive) with A549; > 100 µM (inactive) with ACHN; > 100 µM (inactive) with DU-145; > 100 µM (inactive) in the experiment with HCT-116; more than 100 µM in the experiment with HCT-15. Also, the GI50 in the experiment on HT-29, in the experiment with K562, with MDA-MB-231, in the experiment on NCI-H522, in the experiment on NCI/ADR-RES and in the experiment with OVCAR-4 was > 100 µM (inactive) throughout. Moreover, the GI50 in the experiment with PC-3, with SF-268, in the experiment on SF-295, in the experiment with SF-539, in the experiment on SK-OV-3 and with SR was > 100 µM (inactive) throughout. Further, the GI50 in the experiment with UACC-257 was > 100 µM (inactive).
`CC(C)C(=O)OCC1CCCN2CCCCC12` (stereo not drawn): the GI50 in the experiment with 786-0 is 64.4 µM (inactive); in the experiment with A549, 74 µM (inactive); in the experiment on ACHN it was > 100 µM (inactive); in the experiment on DU-145 it was > 100 µM (inactive); in the experiment on HCT-116, 57.5 µM (inactive); in the experiment with HCT-15 it was 53 µM. Further, the GI50 in the experiment on HOP-92 is > 100 µM (inactive); in the experiment on HT-29, 30.5 µM (inactive); in the experiment on K562, 51.3 µM (inactive); in the experiment on MDA-MB-231, 45.4 µM (inactive); with NCI/ADR-RES it was > 100 µM (inactive); with OVCAR-4, > 100 µM (inactive). For the same molecule, the GI50 in the experiment with PC-3 is 79.4 µM (inactive); with SF-268 it was > 100 µM (inactive); with SF-295, > 100 µM (inactive); in the experiment with SF-539, > 100 µM (inactive); with SK-OV-3, > 100 µM (inactive); in the experiment with UACC-257, > 100 µM (inactive).
Turning to `Clc1ccccc1/C=c1\nc(-c2ccccc2)n2c1nc1ccccc12`, the GI50 with 786-0 is 41.2 µM (inactive); with A549 it was > 100 µM (inactive); in the experiment with ACHN it was > 100 µM (inactive); in the experiment on DU-145 it was > 100 µM (inactive); with HCT-116, 35.4 µM (inactive); in the experiment with HCT-15 it was more than 100 µM. Also, the GI50 in the experiment on HOP-92 was 40.7 µM (inactive); in the experiment on HT-29 it was > 100 µM (inactive); with K562, > 100 µM (inactive); with MDA-MB-231, 22.8 µM (inactive); in the experiment on NCI/ADR-RES, 40.9 µM (inactive); with OVCAR-4, > 100 µM (inactive). Further, the GI50 was 4.66 µM (inactive) in the experiment with PC-3; 19.8 µM (inactive) with SF-268; 10.7 µM (inactive) in the experiment with SF-295; 20 µM (inactive) in the experiment with SF-539; 25.3 µM (inactive) with SK-OV-3; > 100 µM (inactive) in the experiment on UACC-257.
For `CN1N=C(c2ccncc2)OC1c1ccc(Cl)c(Cl)c1` (stereo not drawn), the GI50 was 83.6 µM (inactive) with 786-0; > 100 µM (inactive) in the experiment on A549; > 100 µM (inactive) in the experiment with ACHN; > 100 µM (inactive) in the experiment with DU-145; > 100 µM (inactive) in the experiment on HCT-116; more than 100 µM with HCT-15. Further, the GI50 in the experiment on HOP-92 was > 100 µM (inactive); in the experiment on HT-29 it was 60.8 µM (inactive); in the experiment with K562, 61.8 µM (inactive); with MDA-MB-231, > 100 µM (inactive); in the experiment on NCI-H522 it was > 100 µM (inactive); in the experiment with NCI/ADR-RES, > 100 µM (inactive). In addition, the GI50 in the experiment with OVCAR-4, in the experiment with PC-3, in the experiment with SF-268, in the experiment on SF-295, in the experiment with SF-539 and with SK-OV-3 was > 100 µM (inactive) throughout. For the same molecule, in the experiment on UACC-257, the GI50 is > 100 µM (inactive).
For `CN(C)/C=N/n1c2ccccc2c2ccccc21`, the GI50 in the experiment on 786-0 is > 100 µM (inactive); in the experiment with A549, > 100 µM (inactive); in the experiment on ACHN, > 100 µM (inactive); in the experiment on DU-145, > 100 µM (inactive); in the experiment on HCT-116, > 100 µM (inactive); with HCT-15 it was more than 100 µM. For the same molecule, the GI50 in the experiment on HT-29, in the experiment on K562, in the experiment with MDA-MB-231, with NCI-H522, with NCI/ADR-RES and in the experiment on OVCAR-4 was > 100 µM (inactive) throughout. The GI50 in the experiment on PC-3, in the experiment on SF-268, in the experiment on SF-295, with SF-539, in the experiment with SK-OV-3 and in the experiment with SR was > 100 µM (inactive) each time. The GI50 with UACC-257 was > 100 µM (inactive).
For `OCC1c2ccccc2-n2nc(-c3ccccc3)c(O)c21` (stereo not drawn), the GI50 is 18.2 µM (inactive) in the experiment on 786-0; 44.2 µM (inactive) in the experiment with A549; 16.8 µM (inactive) in the experiment on ACHN; 68.5 µM (inactive) with DU-145; > 10 µM (inactive) in the experiment on HCT-116; 14.9 µM in the experiment on HCT-15. In addition, the GI50 with HOP-92 was 16.9 µM (inactive); in the experiment with HT-29 it was 30.6 µM (inactive); in the experiment with K562, 21.4 µM (inactive); in the experiment with MDA-MB-231 it was 29.2 µM (inactive); in the experiment on NCI-H522 it was 22.1 µM (inactive); in the experiment with NCI/ADR-RES, 18.6 µM (inactive). Also, the GI50 in the experiment with OVCAR-4 was 26.9 µM (inactive); with PC-3, 17.6 µM (inactive); in the experiment on SF-268 it was 36.9 µM (inactive); in the experiment with SF-295, 38.5 µM (inactive); in the experiment with SF-539, 43.1 µM (inactive); with SK-OV-3, 39.4 µM (inactive). Moreover, in the experiment on UACC-257, the GI50 is 47 µM (inactive).
Take `CCOP(=O)(OCC)C(C)(C)N(C)/C(F)=N/C(F)(F)F`: the GI50 is > 100 µM (inactive) in the experiment on 786-0; > 100 µM (inactive) in the experiment with A549; > 100 µM (inactive) in the experiment with ACHN; > 100 µM (inactive) in the experiment on DU-145; > 100 µM (inactive) with HCT-116; more than 100 µM in the experiment on HCT-15. The GI50 with HOP-92, in the experiment with HT-29, in the experiment with K562, in the experiment with MDA-MB-231, with NCI/ADR-RES and with OVCAR-4 was > 100 µM (inactive) in each case. For the same molecule, the GI50 in the experiment with PC-3, in the experiment with SF-268, in the experiment on SF-295, with SF-539, with SK-OV-3 and in the experiment on SR was > 100 µM (inactive) in each case. The GI50 with UACC-257 was > 100 µM (inactive).
Consider `CC(C)(C)C(=O)O[C@H]1C=C[C@@H](O)[C@@H]2[C@H]1[C@@H]1C=C[C@H]2C1`, for which the GI50 is 48.5 µM (inactive) in the experiment on 786-0; 30 µM (inactive) in the experiment on A549; 45.4 µM (inactive) in the experiment with ACHN; 47.6 µM (inactive) with DU-145; 29.6 µM (inactive) with HCT-116; 20 µM in the experiment with HCT-15. The GI50 in the experiment on HOP-92 is 22.2 µM (inactive); in the experiment on K562, 31.9 µM (inactive); in the experiment with MDA-MB-231, 19.2 µM (inactive); in the experiment with NCI-H522, 17.4 µM (inactive); in the experiment with NCI/ADR-RES, 20.2 µM (inactive); in the experiment with OVCAR-4, 21.2 µM (inactive). For the same molecule, the GI50 in the experiment with SF-268 was 27.9 µM (inactive); with SF-295 it was 44.5 µM (inactive); in the experiment with SF-539, 26.5 µM (inactive); with SK-OV-3, 25.2 µM (inactive); in the experiment on SR, 18.9 µM (inactive); with UACC-257 it was 6.52 µM (inactive).
